86 compounds from a melting point compilation (Tetko et al.; mined from patent text by program, amines drawn as free bases though some values may be those of a salt) can be followed below.

The melting point is the temperature of the solid-liquid transition. As for `COCOc1ccc(OC)c(F)c1C(=O)c1ccc(C(=O)N[C@@H]2CCCN(C(=O)OC(C)(C)C)C[C@H]2NC(=O)c2ccncc2)cc1`, the melting point is 106 °C.
The same measure for `C=C(c1cc(OC)c(O)c2c(Cc3ccccc3)cccc12)C(C)(C)C(=O)O`: 162 °C; for `O=C(CCCCNC(=O)C(=O)c1cn2c3c(cccc13)CCC2)NOCc1ccccc1`: 62 to 64 °C; for `O=C(Nc1ccc(-n2nc(C(F)(F)F)cc2C(F)(F)F)cc1)c1cncc(Br)c1`: 155 to 157 °C.
The figure for `COc1cc(NC(=O)OC(C)(C)C)cc(OC)c1SC` is 124 to 126 °C.
The same measure for `NCC(=O)NCC(=O)Nc1ccc(Cl)cc1C(=O)c1ccccc1`: 136 to 138 °C.
Compound `CN1CCC(=C2c3sccc3C=Cn3ccnc32)CC1` displayed a melting point of 152 °C.
The same measure for `CC(CCN1CCN(c2ccc(F)cc2)CC1)N1c2cccc3cccc(c23)S1(=O)=O` (stereo unspecified): 116 °C; for `COC(=O)CCCc1cc2cc(Cl)ccc2n1S(=O)(=O)c1ccc(N)c([N+](=O)[O-])c1`: 157 °C; for `CCNc1ccc(NC(=O)c2ccc(C)c(Nc3nccc(-c4cccnc4)n3)c2)cc1C(F)(F)F`: 178 to 180 °C.
As for `Cc1ccccc1NC1=CCC(C)n2c1ncc(C(=O)O)c2=O` (stereo unspecified), the melting point lay within 157 to 159 °C.
The same measure for `O=C(CC1CCCC1)c1c(-c2ccc3c(Br)c(OCc4nnn[nH]4)ccc3c2)oc2ccccc12`: 186 to 187 °C; for `Cc1ccc(C)n1S(=O)(=O)c1ccc(CC(=O)c2ccccc2)cc1`: 94.6 to 98.8 °C; for `COc1cc(OC)nc(C2(O)OC(=O)c3c(-c4ccco4)ccnc32)n1` (stereo unspecified): 198 to 204 °C.
The same measure for `O=C1C(=O)c2ccccc2C2=C1SCC1(CCN(S(=O)(=O)c3cccc(Cl)c3)CC1)O2`: 255 to 256 °C.
Compound `CN(C)S(=O)(=O)c1cc(-c2csc(=Nc3ccc(Cl)cc3)n2C)ccc1Cl` displayed a melting point of 184 °C.
The figure for `CC(=O)Nc1ccc(S(=O)(=O)Nc2nncs2)cc1` is 214 to 215 °C; for `CC(C)(NC(=O)C(CS)Cc1ccccc1)C(=O)OCc1ccccc1` (stereo unspecified) it is 53 to 56 °C; for `Cc1cnc(C2=NC(C)(C(C)C)C(=O)N2)c(C(O)c2ccc(C)s2)c1` (stereo unspecified) it is 147 to 148 °C.
The same measure for `CCCCNC(=O)N1CCC(c2nc(-c3ccc(-c4ccccc4)cc3)c[nH]2)CC1`: 99 to 100 °C; for `OC(c1ccc(Cl)cc1)C(Nn1cncn1)c1ccc(F)cc1F` (stereo unspecified): 61 to 76 °C.
The figure for `Nc1cc(-n2cc(C(=O)O)c(=O)c3cc(F)c(F)cc32)c(F)cc1F` is greater than 270 °C; for `Nc1cc(C(=O)c2ccc(Oc3ccccc3)c(N)c2)ccc1Oc1ccccc1` it is 153 to 154 °C; for `COc1ccc(-n2nc(C(F)F)cc2-c2ccc(S(C)(=O)=O)cc2)cc1` it is 135 °C.
As to `COc1ccc(-c2cc(C)nc3ccccc23)cc1`, the melting point came out at 101 °C.
`Cc1nc(N)c2nc(C)n(CCCCCS(=O)(=O)c3ccccc3)c2c1C`: the melting point was 166 to 167 °C.
Take `O=C(NCC#CCN1CCN(c2ncccn2)CC1)c1nsc2ccccc12`: the melting point was in the range of 102 to 104 °C.
The figure for `Cc1cc(C)cc(Nc2cccc3c2OC(CN)C3)c1` (stereo unspecified) is greater than 250 °C; for `Cc1cc([N+](=O)[O-])c2c(c1Cl)CC(C)O2` (stereo unspecified) it is 114 to 116 °C.
For `CC(=O)c1ccc2c(c1)N(C)CCC2(C)C`, the melting point is 46 to 48 °C.
The same measure for `COC=C(C(=O)OC)c1ccc(CC(=O)O)cc1`: 81 to 84 °C; for `CC(=O)NC(C)c1ccc(CN2CCN(c3cccc(F)n3)CC2)cc1` (stereo unspecified): 109 to 111 °C; for `CCCCNC(=O)c1ccc(Cl)c(-n2nc(CCCC)n(Cc3ccc(-c4ccccc4S(=O)(=O)NC(=O)c4ccccc4Cl)cc3F)c2=O)c1`: 218 to 220 °C.
The figure for `CC(=O)NC(COCc1cc(C)cc(C)c1)Cc1cccc2ccccc12` (stereo unspecified) is 119 to 120 °C; for `CCCNC(=O)c1ccccc1N=C(NC(=O)c1ccccc1)SC` it is 86 to 89 °C.
The same measure for `Cc1nccn1-c1nc(-c2ccc(Cl)cc2)c(CCCOc2ccccc2CCCO)o1`: 119 to 120 °C; for `C[N+]([O-])=C(Cn1ccnc1)c1ccc(F)cc1`: 81 to 84 °C; for `CCOC(=O)/C=C/c1c2c(nn1-c1ccc(F)cc1)C(Cc1ccccc1)CCC2` (stereo unspecified): 117 to 118 °C.
As for `N#Cc1c(Cl)c2cccnc2n(Cc2ccccc2)c1=O`, the melting point was determined as 188 °C.
The same measure for `COC(=O)C[C@H]1C[C@@H](CCc2c(-c3ccc(F)cc3)c(-c3ccccc3)c(C(=O)NCc3ccccc3)n2C(C)C)OC(C)(C)O1`: 65 to 67 °C; for `OCCC1(CCO)c2ccccc2Sc2ccccc21`: 132 to 135 °C.
The same measure for `CCOC(=O)C(=O)/C=C/c1ccc(OCc2nc(-c3ccccc3)oc2C)cc1`: 110 to 111 °C; for `CN(C)C(=O)C=C(c1ccc(-c2ccccc2)cc1)c1ccc(-c2ccccc2)cc1`: 121 °C.
The same measure for `O=C(Nc1ccccc1Nc1ccccc1)N[C@@H](Cc1ccc(NC(=O)c2c(Cl)cccc2Cl)cc1)C(=O)O`: 174 °C; for `O=C(O)c1ccc(-c2ccc(NC(=O)C(F)(F)F)cc2)[nH]c1=O`: greater than 270 °C.
The compound `CSc1snc(C(F)(F)F)c1C(=O)O` came in with a melting point of 260 to 262 °C.
The figure for `NS(=O)(=O)c1cnc(NC(=O)c2cnn3c(C(F)F)cc(-c4ccc(C(F)(F)F)cc4)nc23)s1` is 311 °C.
The same measure for `Nc1ncc2ncn([C@H]3C=C[C@@H](O)C3)c2n1` (racemic): 144 to 147 °C.
The figure for `Nc1cn(-c2cncc(F)c2)nc1Cl` is 149 to 151 °C; for `Cc1ccc(S(=O)(=O)N2Cc3cnc(C)n3-c3ccc(Cl)cc3C2c2ccccc2F)cc1` (stereo unspecified) it is 152 to 153 °C.
`Cc1cc2c(cc1C1=NNC(=O)SC1C)C(C)(C)C(=O)N2` (stereo unspecified) came in with a melting point of 240 °C.
`N#CCCNC(=O)c1cccc(-c2ccc3ccn(Cc4ccc(Cl)cc4Cl)c3n2)c1`: the melting point lay within 186 to 187 °C.
The figure for `COC(=O)CCC(=O)OCC(C)(C)Oc1ccc2c(c1)CCc1c-2ccc2c1CCC2(C)C` is 58 to 60 °C; for `Cc1cc(NNC(=O)Nc2ccc(N(CCCl)CCCl)cc2)c2ccccc2n1` it is 235 to 236 °C.
The same measure for `Nc1c(-c2ccc(OC(F)(F)F)cc2)nnn1-c1ccc(C(F)(F)F)cc1F`: 134 to 135 °C; for `COC(=O)c1ccc2cc([C@H]3OC[C@@H](S[C@H](C)[C@](O)(Cn4cncn4)c4ccc(F)cc4F)CO3)ccc2c1`: 153 °C; for `O=c1[nH]nc2c3c(cccc13)N=C(CN1CCCN(S(=O)(=O)c3ccccc3)CC1)N2`: 265 to 268 °C.
The figure for `O=Cc1cc2ccc3ccc4ccccc4c3c2o1` is 169 °C.
As for `CCCn1cc2c(C3C(=O)Nc4ccc(S(=O)(=O)N(C)C)cc43)nc(Cl)nc2n1` (stereo unspecified), the melting point is greater than 300 °C.
The same measure for `CCn1c(=O)c2[nH]c(-c3ccc(S(=O)(=O)N4CCN(C)CC4)cc3)nc2n(CC)c1=O`: 305 to 307 °C; for `CCCc1cc(C(=O)NC(C)(C)C)no1`: 34 to 37 °C.
The figure for `Cc1ccnc2c1C(=O)CC(c1cc(Cl)ccc1Cl)C2` (stereo unspecified) is 116 to 117 °C; for `Nc1ccc([N+](=O)[O-])c(NC(=O)c2ccccc2)c1` it is 203 to 207 °C.
The figure for `O=C(CCC(=O)N1CCC(c2ccc(Cl)cc2)CC1)c1ccc2c(c1)CCN(C1CCCC1)CC2` is 160 to 162 °C; for `CCCCCCC(O)C(=O)NCCS` (stereo unspecified) it is 83 to 84 °C.
For `OC(CCl)(c1ccccc1)c1ccccc1`, the melting point lay in the range of 56 to 57 °C.
The figure for `COc1cc(OC)c2c(=O)[nH]c(-c3ccc(OCCNC(C)C)c(-c4cccc(S(C)=O)c4)n3)nc2c1` (stereo unspecified) is 156 to 157 °C.
The same measure for `CCC(NC(=S)Nc1nc(C)cs1)C(C)C` (stereo unspecified): 164 to 166 °C.
The figure for `CCCCCS(=O)(=O)NC(=O)/C=C/c1ccc(OCCOC)cc1Oc1ncc(-c2ccccc2)cc1C` is 133 to 134 °C.
`c1ccc(-c2ncnn2-c2ccccc2)cc1` registered a melting point of 85 to 87 °C.
The same measure for `CC(=O)Nn1c(-c2ccccc2)nc2cc(C(F)(F)F)ccc21`: 150 to 154 °C; for `Nc1ccc(-c2noc(-c3cnn4c(C(F)F)cc(-c5ccc(C(F)(F)F)cc5)nc34)n2)cn1`: 242 °C; for `O=C(c1ccc(C2CCCCC2)cc1)N1Cc2ccc(C(=O)C(Cl)(Cl)Cl)n2Cc2ccccc21`: 172 to 174 °C.
The figure for `Cc1ccc(C(O)c2ccc(N)cc2)nc1` (stereo unspecified) is 114 to 115 °C.
The same measure for `CNc1c(C)cc(N)c([N+](=O)[O-])c1C`: 57 °C; for `CC(=O)N1CC(C)(C)c2cc3nc(-c4ccccc4)[nH]c3cc21`: 225 to 227 °C; for `O=C(c1cnc(Cl)nc1C(F)(F)F)N1Cc2cccn2Cc2ccccc21`: 221 to 223 °C.
`CN(C)c1ccc2c(c1)C(=O)N(c1ccc3c(c1)CCN3C)C2`: the melting point fell in the range of 268 to 270 °C.
`N#Cc1cc(-c2ccc(F)cc2)ccn1` showed a melting point of 194 to 195 °C.
Consider `C[C@H]1C(=O)C2(CC2)C(=O)N1c1ccc(C#N)c(Cl)c1`, for which the melting point was in the range of 169 to 172 °C.
The figure for `CCN(CC)C(=O)c1ccc2ccccc2c1-c1ccc(N(C)C)cc1` is 140 to 141 °C.
The same measure for `COC(=O)c1ccc([C@H]2CC[C@H](C=O)CC2)cc1`: 84 to 85 °C; for `Clc1cn2ccnc2c(Br)n1`: 146 to 147 °C; for `CCOC(=O)C(C#N)NC(=O)OCc1ccccc1` (stereo unspecified): 111 to 112 °C.
The figure for `CCOC(=O)c1cccc2c1Nc1ccc(C(=O)c3ccccc3)cc1N2Cc1ccccc1` is 134 to 136 °C.
The compound `O=C(Nc1c(C(O)(C(F)(F)F)C(F)(F)F)ccc2ccccc12)c1cccc(F)c1` yielded a melting point of 190 to 192 °C.
